# Results: patent publication US4634707A, “5-Pyrimidinecarboxamides and treatment of leukemia and tumors therewith” (Uniroyal Chemical Company, priority 1984, dated 1987)
# “And” between values parts separate entries of the source, which are not always exact repeats. Equal values may be shown once.
# How the values were obtained:
# B16 melanoma = test: NCI 3B131, i.p.-implanted B16 melanoma; assay type: in vivo, murine (mice)
# Procedure: (§1) The spectrum of antitumor activity of the compound of Example 1 was determined employing a number of standard National Cancer Institute (NCI) protocols. The antitumor activity was determined in vivo against several different tumors, employing various treatment schedules and routes of administration.
# (§2) The ratio of the survival time for the treated animals (T) to the survival time for the control animals (C) determined at varying dosages in the respective in vivo tests is set forth in the table: […]
# CD8F1 mammary tumor = test: NCI 3CDJ2, s.c.-implanted staged mammary adenocarcinoma CD8F1; assay type: in vivo, murine (mice); design: key to Treated/Control percent: (-): toxic dose
# Procedure: as §1, §2
# Colon 38 tumor = test: NCI 3C872, s.c.-implanted colon 38 carcinoma; assay type: in vivo, murine (mice); design: key to Treated/Control percent: (-): toxic dose
# Procedure: as §1, §2
# L1210 leukemia [1] = test: NCI 3LE31, i.p.-implanted L1210 lymphoid leukemia; assay type: in vivo, DBA/2 mice
# Procedure: as §1
# Samples of the test compounds of Examples 1-10 and a number of structurally-related control compounds were tested in accordance with National Cancer Institute test protocol 3LE31 (NCI Protocol 1.100, Cancer Chemotherapy Reports Part 3, Vol. 3, No. 2, September 1972) to determine the effects of the several compounds on i.p.-implanted L1210 leukemia (J. Nat'l. Cancer Inst. 13(5):1328, 1953). Each test involved implantation of the leukemia cells in six DBA/2 mice, one sex per experiment, the male mice weighing a minimum of 18 grams and the female mice weighing a minimum of 17 grams, and all of the test animals being within a three gram weight range. The test compound was administered by i.p. injections, in 0.1 ml. doses of diluted ascitic fluid (10^5 cells per dose), commencing one day after the tumor implant and continuing daily for nine days.
# The test animals were weighed and survivors recorded on a regular basis during a thirty day test period. The ratio of survival time for the treated and control animals (T/C) was determined as a percentage.
# The tests were carried out at varying dosage levels and with varying numbers of repetitions, depending upon the results obtained with each test compoud. […] A reproducible T/C of 150% or higher is considered significant activity.
# The number of mice "cured", viz., those surviving from each animal test group after the thirty day test period, is indicated in parenthesis following the T/C percentage data in Table III below: […]
# L1210 leukemia [2] = test: NCI 3LE32, s.c.-implanted L1210 leukemia; assay type: in vivo, murine (mice); design: key to Treated/Control percent: (-): toxic dose
# Procedure: as §1, §2
# L1210 leukemia [3] = test: NCI 3LE37, i.c.-implanted L1210 leukemia; assay type: in vivo, murine (mice); design: key to Treated/Control percent: (-): toxic dose
# Procedure: as §1, §2
# Lewis lung carcinoma = test: NCI 3LL39, i.v.-implanted Lewis lung carcinoma; assay type: in vivo, murine (mice)
# Procedure: as §1, §2
# M5076 sarcoma = test: NCI 3M531, i.p.-implanted M5076 sarcoma; assay type: in vivo, murine (mice); design: key to Treated/Control percent: (-): toxic dose
# Procedure: as §1
# In three experiments involving the i.p. implanted M5076 sarcoma, maximum ILS values of 72, 72 and 48% were achieved after i.p. treatment on days 1, 5, 9 and 13.
# as §2
# P388 leukemia = test: NCI 3PS31, i.p.-implanted P388 leukemia; assay type: in vivo, murine (mice); design: key to Treated/Control percent: (-): toxic dose
# Procedure: as §1, §2
# MX-1 mammary tumor = test: NCI 3MBG5, s.r.c. human mammary carcinoma MX-1 xenograft; assay type: in vivo, human tumor xenograft; design: key to Treated/Control percent: (-): toxic dose
# Procedure: as §1, §2
# L1210 leukemia [4] = test: Effects of treatment schedule and route of administration against s.c.-implanted L1210 leukemia; assay type: in vivo
# Procedure: The influences of treatment schedule and route of administration on the antitumor activity of the compound of Example 1 were evaluated using the s.c. implanted L1210 leukemia system. The drug was tested in the form of a freeze dried dosage form containing 50 mg. of the compound and 100 mg. N-methylglucamine, reconstituted with 5 ml. of sterile water to yield a 10 mg/ml. solution at about pH 9.5.
# The percentage increases in life span (%ILS) are shown in the accompanying drawing for different treatment regimens and routes of administration. […] The highest percent ILS was 471 obtained by daily i.p. injections of the active material on a five day schedule of 45 mg/kg/injection, corresponding to a total dose of 225 mg/kg/duration of the treatment (test C in the drawing). This dosage also gave 5 cures.
# [5] = 50 mg/kg, stated jointly for i.p. and s.c. L1210 systems
# [6] = i.p. L1210, i.p. days 1-9 (Table I)
# [7] = s.c. L1210, i.p. days 1-9 (Table I)
structure (smiles),measurement,setting,value
"O=C(Nc1ccccc1)c1c(O)[nH]c(=S)[nH]c1=O [Example 1, 1,2,3,4-tetrahydro-6-hydroxy-4-oxo-N-phenyl-2-thioxo-5-pyrimidinecarboxamide]",Treated/Control percent,B16 melanoma; 6 mg/kg,108%
same,Treated/Control percent,B16 melanoma; 12 mg/kg,128%
same,Treated/Control percent,B16 melanoma; 25 mg/kg,137% and 158%
same,Treated/Control percent,B16 melanoma; 50 mg/kg,152% and 169%
same,Treated/Control percent,B16 melanoma; 100 mg/kg,185% and 193%
same,increase in life-span (% ILS),"B16 melanoma; i.p. B16, days 1-9 i.p., optimal values at 100 mg/kg, 100 mg/kg",93% and 85%
same,Activity (ILS),B16 melanoma; over at least a 4-fold dosage range,25%
same,Treated/Control percent,CD8F1 mammary tumor; 56 mg/kg,61%
same,Treated/Control percent,CD8F1 mammary tumor; 112 mg/kg,80%
same,Treated/Control percent,CD8F1 mammary tumor; 225 mg/kg,(-)
same,Treated/Control percent,CD8F1 mammary tumor; 450 mg/kg,(-)
same,Treated/Control percent,CD8F1 mammary tumor; 900 mg/kg,(-)
same,effectiveness (in words),"CD8F1 mammary tumor; s.c. implanted CD8F1, experimental conditions employed",ineffective
same,Treated/Control percent,Colon 38 tumor; 56 mg/kg,70% and 120%
same,Treated/Control percent,Colon 38 tumor; 225 mg/kg,51%
same,Treated/Control percent,Colon 38 tumor; 450 mg/kg,(-)
same,Treated/Control percent,Colon 38 tumor; 900 mg/kg,(-)
same,effectiveness (in words),"Colon 38 tumor; s.c. implanted colon 38, experimental conditions employed",ineffective
same,maximum increased life spans,L1210 leukemia [1]; [5],87-190%
same,cures (in words),L1210 leukemia [1]; 100 mg/kg,produced a number of cures at 100 mg/kg
same,"curative, share of test mice","L1210 leukemia [1]; 100 mg/kg i.p. daily for 9 days, i.p. L1210",at least 50%
same,toxicity of 100 mg/kg dose,"L1210 leukemia [1]; 100 mg/kg i.p. daily for 9 days, i.p. system",occasionally demonstrated some toxicity
same,activity in i.p.-implanted lymphoid leukemia test (in words),"L1210 leukemia [1]; 3LE31, reproducible T/C of 150% or higher is considered significant activity",exhibited significant activity
same,response vs control in vivo at 6.25 mg/kg,"L1210 leukemia [1]; Mus musculus, L1210, ip, 6.25 mg/kg i.p. daily for nine days, read-out: T/C % (survival time treated/control)",116%
same,response vs control in vivo at 12.5 mg/kg,"L1210 leukemia [1]; Mus musculus, L1210, ip, 12.5 mg/kg i.p. daily for nine days, read-out: T/C % (survival time treated/control)",117%
same,cures/total,L1210 leukemia [1]; [6],4/6 and 6/6
same,increase in life-span (% ILS),L1210 leukemia [1]; [6],> 275% and > 229%
same,Treated/Control percent,L1210 leukemia [2]; 12.5 mg/kg,109% and 104%
same,Treated/Control percent,L1210 leukemia [2]; 25 mg/kg,108% and 99%
same,Treated/Control percent,L1210 leukemia [2]; 50 mg/kg,140% and 127%
same,maximum increased life spans,L1210 leukemia [2]; [5],87-190%
same,Treated/Control percent,L1210 leukemia [2]; 100 mg/kg,300% and 254%
same,cures in test at specified dose,L1210 leukemia [2]; 100 mg/kg,5 and 3
same,"curative, share of test mice","L1210 leukemia [2]; 100 mg/kg i.p. daily for 9 days, s.c. L1210",at least 50%
same,Treated/Control percent,L1210 leukemia [2]; 200 mg/kg,(-)
same,cures/total,L1210 leukemia [2]; [7],5/6 and 3/6
same,increase in life-span (% ILS),L1210 leukemia [2]; [7],> 200% and > 154%
same,Treated/Control percent,L1210 leukemia [3]; 12.5 mg/kg,94% and 106%
same,Treated/Control percent,L1210 leukemia [3]; 25 mg/kg,98%
same,Treated/Control percent,L1210 leukemia [3]; 50 mg/kg,113% and 108%
same,Treated/Control percent,L1210 leukemia [3]; 100 mg/kg,128% and 134%
same,activity (in words),L1210 leukemia [3]; 100 mg/kg i.p. daily for 9 days,marginal activity
same,Treated/Control percent,L1210 leukemia [3]; 200 mg/kg,(-)
same,increase in life-span (% ILS),"L1210 leukemia [3]; i.c. L1210, 100 mg/kg i.p. daily for 9 days",28-34%
same,Treated/Control percent,Lewis lung carcinoma; 12.5 mg/kg,103%
same,Treated/Control percent,Lewis lung carcinoma; 25 mg/kg,106%
same,Treated/Control percent,Lewis lung carcinoma; 50 mg/kg,115%
same,Treated/Control percent,Lewis lung carcinoma; 100 mg/kg,126%
same,effectiveness (in words),"Lewis lung carcinoma; i.v. implanted, experimental conditions employed",ineffective
same,Treated/Control percent,M5076 sarcoma; 12.5 mg/kg,117%
same,Treated/Control percent,M5076 sarcoma; 25 mg/kg,101% and 130%
same,Treated/Control percent,M5076 sarcoma; 50 mg/kg,124% and 147%
same,Treated/Control percent,M5076 sarcoma; 100 mg/kg,148% and 172%
same,Treated/Control percent,M5076 sarcoma; 200 mg/kg,(-)
same,cures/total,"M5076 sarcoma; i.p. M5076, Days 1-13",2/10
same,increase in life-span (% ILS),"M5076 sarcoma; i.p. M5076, i.p. treatment on days 1, 5, 9 and 13, maximum values",72% and 48%
same,Treated/Control percent,P388 leukemia; 3.13 mg/kg,110%
same,Treated/Control percent,P388 leukemia; 6.25 mg/kg,116%
same,Treated/Control percent,P388 leukemia; 12.5 mg/kg,120%
same,Treated/Control percent,P388 leukemia; 25 mg/kg,145% and 138%
same,Treated/Control percent,P388 leukemia; 50 mg/kg,162% and 194% and 201%
same,Treated/Control percent,P388 leukemia; 100 mg/kg,(-)
same,Treated/Control percent,P388 leukemia; 200 mg/kg,(-)
same,increase in life-span (% ILS),"P388 leukemia; i.p. P388, 50 mg/kg i.p. daily, five days, maximum values",101% and 94% and 62%
same,activity (in words),P388 leukemia; standard NCI P388 preliminary screen,good activity
same,Treated/Control percent,MX-1 mammary tumor; 75 mg/kg,98%
same,Treated/Control percent,MX-1 mammary tumor; 150 mg/kg,(-)
same,Treated/Control percent,MX-1 mammary tumor; 300 mg/kg,(-)
same,Treated/Control percent,MX-1 mammary tumor; 600 mg/kg,(-)
same,effectiveness (in words),"MX-1 mammary tumor; s.r.c. xenograft, experimental conditions employed",ineffective
same,increases in life span by treatment and route (in words),"L1210 leukemia [4]; all treatments and routes, exceptions tests A and G (i.p. and i.v. one day, one injection)","increases in life span were noted using all treatments and routes of administration save for the i.p. and i.v. one day, one injection treatments"
same,substantial increases in life span (% ILS),L1210 leukemia [4]; each route and schedule save single treatment i.p. and i.v.,> 25%
same,toxicity (in words),"L1210 leukemia [4]; highest dose in each schedule, exception test F (i.p. every three hours on days one, five and nine)","toxicity was noted with the highest dose in each treatment schedule except for that involving i.p. administration every three hours on days one, five and nine of a nine day test"
same,cures,"L1210 leukemia [4]; test C: daily i.p., five days, 45 mg/kg/injection",5
same,increase in life span (% ILS),"L1210 leukemia [4]; test C: daily i.p., five days, 45 mg/kg/injection, total 225 mg/kg",471%
same,cures,"L1210 leukemia [4]; test I: oral daily for nine days, 124 mg/kg/injection",4
same,increase in life span (% ILS),"L1210 leukemia [4]; test I: oral daily for nine days, 124 mg/kg/injection, cumulative 1116 mg/kg",452%
